Key:
Assay type in all cases: functional, Homo sapiens
Set-up in all cases: dose or concentration left out as unconfirmed
Colon cancer organoid [1] = assay: Identification of compartment-specific drug sensitivities in O06 CRC organoid-stroma F06 CAF co-cultures. Organoid is transduced with Lucferase2-P2A-EGFP lentivirus, fibroblast with Renilla-dsRed lentivirus. Dual-Glo Luciferase assay is used to report viability data.
Colon cancer organoid [2] = assay: Identification of compartment-specific drug sensitivities in O14 CRC organoid-stroma F14 CAF co-cultures. Organoid is transduced with Lucferase2-P2A-EGFP lentivirus, fibroblast with Renilla-dsRed lentivirus. Dual-Glo Luciferase assay is used to report viability data.
Colon cancer organoid [3] = assay: Identification of compartment-specific drug sensitivities in O20 CRC organoid-stroma F20 CAF co-cultures. Organoid is transduced with Lucferase2-P2A-EGFP lentivirus, fibroblast with Renilla-dsRed lentivirus. Dual-Glo Luciferase assay is used to report viability data.
[4] = Transduced with Lucferase2-P2A-EGFP lentivirus
[5] = Transduced with Renilla-dsRed lentivirus

SMILES	Cell Viability (Colon cancer organoid [1]; [4]) [%]	Cell Viability (Colon cancer organoid [1]; [5]) [%]	Cell Viability (Colon cancer organoid [2]; [4]) [%]	Cell Viability (Colon cancer organoid [2]; [5]) [%]	Cell Viability (Colon cancer organoid [3]; [4]) [%]	Cell Viability (Colon cancer organoid [3]; [5]) [%]
Cc1noc(C)c1-c1cnc2c(-c3ccc(C(=O)O)cc3)cn([C@@H](C)c3ccccn3)c2c1 [PLX-51107]	26.8486	312.702	39.3332	170.275	17.7697	177.825
Cn1cc(CNCC2CCN(c3ncc(C(=O)NO)cn3)CC2)c2ccccc21 [QUISINOSTAT]	1.095	190.694	6.037	54.4916	1.348	37.1921
CC(C)(C)c1cc(NC(=O)Nc2ccc(-c3cn4c(n3)sc3cc(OCCN5CCOCC5)ccc34)cc2)no1 [QUIZARTINIB]	26.1053	134.448	48.7226	98.8717	58.8072	111.29
CN(C)C(=O)c1cc2cnc(Nc3ccc(N4CCNCC4)cn3)nc2n1C1CCCC1 [RIBOCICLIB]	54.2961	126.231	43.0147	103.263	36.7036	144.514
O=C(CCCCCCNC(=O)c1cnc(N(c2ccccc2)c2ccccc2)nc1)NO [RICOLINOSTAT]	80.064	143.43	136.319	100.142	159.49	130.22
C=CC(=O)Nc1ccc2[nH]c(=O)n(C3CCN(Cc4ccc(-c5ccc6c(c5)NC(=O)CO6)cc4)CC3)c2c1 [RL2578]	88.4189	104.707	83.2796	87.8699	101.642	98.7435
CN(C)CCOc1ccc(-c2nc(-c3ccncc3)c(-c3ccc4c(c3)CC/C4=N\O)[nH]2)cc1 [SB590885]	79.2379	96.48	183.636	84.6732	154.959	68.1541
CC[C@H](CO)Nc1nc(NCc2ccccc2)c2ncn(C(C)C)c2n1 [SELICICLIB]	93.234	112.199	121.256	106.182	126.177	75.3934
C[C@@H]1CCc2ncc(F)cc2[C@H]2CCCN2c2ccn3ncc(c3n2)C(=O)N1 [SELITRECTINIB]	101.733	118.761	99.8274	100.464	168.559	73.3915
Cc1cc(F)c(C(=O)Nc2cccc(-c3nncn3C(C)C)n2)cc1-n1cnc(C2CC2)c1 [SELONSERTIB]	89.6649	105.018	143.918	74.3836	141.758	89.2485
Cn1cnc2c(F)c(Nc3ccc(Br)cc3Cl)c(C(=O)NOCCO)cc21 [SELUMETINIB]	99.2613	98.6384	44.7701	55.8657	54.0546	152.417
O=C(O)c1ccc2c(c1)nc(Nc1cccc(Cl)c1)c1ccncc12 [SILMITASERTIB]	108.166	80.6873	116.96	107.599	158.324	81.7658
N#Cc1cnc(Nc2cc(NC[C@H]3CNCCO3)c(C(F)(F)F)cn2)cn1 [SRA-737]	89.9461	120.027	25.2627	122.808	103.573	133.202
CN[C@@H]1C[C@H]2O[C@@](C)([C@@H]1OC)n1c3ccccc3c3c4c(c5c6ccccc6n2c5c31)C(=O)NC4 [STAUROSPORINE]	0.2458	0.5911	0.5717	0.4831	0.3702	0.5055
O=C1c2ccc(Nc3ccc(F)cc3F)cc2CCc2ccc(OC[C@H](O)CO)cc21 [Skepinone-L]	115.343	88.0925	166.491	75.8508	88.6485	86.6611
CN1CCN(C(=O)C(C)(C)c2ccc(C(=O)Nc3cn4cc(-c5cc(C(C)(C)C)cc(C(C)(C)C)c5)ccc4n3)cc2)CC1 [T3-CLK-N]	112.366	80.0588	123.449	101.908	83.0148	112.725

SMILES	Cell Viability (Colon cancer organoid [1]; [4]) [%]	Cell Viability (Colon cancer organoid [1]; [5]) [%]	Cell Viability (Colon cancer organoid [2]; [4]) [%]	Cell Viability (Colon cancer organoid [2]; [5]) [%]	Cell Viability (Colon cancer organoid [3]; [4]) [%]	Cell Viability (Colon cancer organoid [3]; [5]) [%]
CN1CCN(C(=O)C(C)(C)c2ccc(C(=O)Nc3cn4cc(-c5ccncc5)ccc4n3)cc2)CC1 [T3-CLK]	27.6026	129.967	20.1131	93.3356	17.3495	291.942
COc1cccc(CNC(=O)c2nc3scc(CN(C)Cc4ccccc4)c3c(=O)[nH]2)c1 [T-26f]	112.096	76.7347	126.414	118.487	156.545	109.586
O[C@H]1CC[C@H](Nc2ncc3nc(Nc4c(F)cc(F)cc4F)n([C@H]4CCOC4)c3n2)CC1 [TANZISERTIB]	96.802	109.826	133.231	127.243	128.622	97.8883
Cc1nc(-c2cn3c(n2)-c2ccc(-c4cnn(C(C)(C)C(N)=O)c4)cc2OCC3)n(C(C)C)n1 [TASELISIB]	42.3556	62.2904	38.4959	67.2929	15.8824	146.008
COc1cccc2c1c(O)c(C(=O)N(C)c1ccc(C(F)(F)F)cc1)c(=O)n2C [TASQUINIMOD]	78.5663	130.265	112.754	82.8858	64.5374	99.9703
C[C@@H]1CCN(C(=O)CC#N)C[C@@H]1N(C)c1ncnc2[nH]ccc12.O=C(O)CC(O)(CC(=O)O)C(=O)O [TOFACITINIB CITRATE]	105.115	91.9737	83.3835	105.446	113.321	86.9545
CCC(=O)N1CCN(c2ccc(-n3c(=O)ccc4cnc5ccc(-c6cnc7ccccc7c6)cc5c43)cc2C(F)(F)F)CC1 [TORIN1]	4.705	40.1911	10.1866	12.2493	7.451	44.8651
Cc1cnc(-c2cc(Cl)ccc2F)cc1-n1c(=O)n(CC(N)=O)c2cnccc21 [TP-008]	13.7504	213.932	74.2388	68.4272	64.1266	114.054
Cn1nc(C(F)(F)F)cc1-c1cnc(N2CCc3cc(S(=O)(=O)Nc4c(F)cc(Cl)cc4F)cc(N4CCCC4=O)c32)nc1 [TP-020]	69.3758	110.898	113.877	116.294	86.7802	95.2287
Cc1cc(-n2nc(Cc3cc(F)cc(C(F)(F)F)c3)nc2C)ccc1C(N)=O [TP-024]	115.389	121.941	124.645	106.61	120.055	118.791
CC1CCN(c2ccnc(NCc3cn(C)cn3)n2)CC1 [TP-040]	104.895	163.738	70.4837	82.5883	75.5826	95.0735
CN1CCN(c2ccnc(NCCc3ccccc3)n2)CC1 [TP-040n]	57.9985	123.721	106.261	101.91	67.1911	97.5889
CC(=O)Nc1cccc(-n2c(=O)n(C3CC3)c(=O)c3c(Nc4ccc(I)cc4F)n(C)c(=O)c(C)c32)c1 [TRAMETINIB]	4.775	48.8246	7.5472	16.7625	2.051	46.1337
Cc1ccc2[nH]c(CNCCCc3ccncc3)cc(=O)c2c1 [UCSF924NC]	92.2965	82.507	107.168	100.112	121.808	109.302
Cc1ccc2nc(CNCCCOc3ccccc3)cc(O)c2c1 [UCSF924]	107.729	156.395	102.025	95.7371	115.834	125.381

Source: ChEMBL document CHEMBL5608141, “Identification of compartment-specific drug sensitivities in CRC organoid-stroma co-cultures” (2024)
